Results from ChEMBL document CHEMBL4359934, “Green chemistry appended synthesis, metabolic stability and pharmacokinetic assessment of medicinally important chromene dihydropyrimidinones” (Bioorg Med Chem Lett, 2019).
Converted amounts (≈) assume the structure as drawn. Blank lines part the entries; values can stand above or below the compound they belong to.

Assays:
Rattus norvegicus [1] = organism: Rattus norvegicus; test: Inhibition of rat P-gp ATPase in jejuna mucosa membrane assessed as remaining enzyme activity at 20 uM using ATP as substrate preincubated for 5 mins followed by substrate addition and measured after 30 mins; type: cell membranes
A549 = test: Cytotoxicity against human A549 cells assessed as reduction in cell viability by MTT assay; type: functional, cell-based
[2] = Ratio of drug level in blood to plasma (unknown origin) at 500 nM incubated for 60 mins by LC-MS/MS analysis; type: ADME, cell-free; conditions: blood and plasma
[3] = Intrinsic clearance in human liver at 10 uM by LC-MS/MS analysis; type: ADME, tissue-based; conditions: read-out: CLH
[4] = Permeability coefficient of compound incubated for 5 hrs by LC-MS/MS analysis based PAMPA assay; type: ADME
[5] = Metabolic stability in rat liver microsomes assessed as remaining compound at 10 uM measured at 30 mins by LC-MS/MS analysis relative to control; type: ADME, Microsome; conditions: read-out: Stability
[6] = Ratio of drug level in blood to plasma (unknown origin) at 500 nM measured immediately by LC-MS/MS analysis; type: ADME, cell-free; conditions: blood and plasma
[7] = Metabolic stability in human liver microsomes assessed as remaining compound at 10 uM measured at 15 mins by LC-MS/MS analysis relative to control; type: ADME, Microsome; conditions: 0.25 h
[8] = Stability in rat liver microsomes assessed as hepatic extraction ratio at 10 uM by LC-MS/MS analysis; type: ADME, Microsome; conditions: read-out: ERH
[9] = Ratio of drug level in blood to plasma (unknown origin) at 500 nM incubated for 15 mins by LC-MS/MS analysis; type: ADME, cell-free; conditions: blood and plasma
[10] = Stability in human liver microsomes assessed as hepatic extraction ratio at 10 uM by LC-MS/MS analysis; type: ADME, Microsome; conditions: read-out: ERH
[11] = Metabolic stability in rat liver microsomes assessed as remaining compound at 10 uM measured at 45 mins by LC-MS/MS analysis relative to control; type: ADME, Microsome; conditions: read-out: Stability
[12] = Intrinsic clearance in human microsomes at 10 uM by LC-MS/MS analysis; type: ADME, Microsome
[13] = Metabolic stability in human liver microsomes assessed as remaining compound at 10 uM measured at 30 mins by LC-MS/MS analysis relative to control; type: ADME, Microsome; conditions: read-out: Stability
[14] = Intrinsic clearance in rat microsome at 10 uM by LC-MS/MS analysis; type: ADME; conditions: microsomes
[15] = Ratio of drug level in blood to plasma (unknown origin) at 500 nM incubated for 45 mins by LC-MS/MS analysis; type: ADME, cell-free; conditions: blood and plasma
[16] = Metabolic stability in rat liver microsomes assessed as half life at 10 uM by LC-MS/MS analysis; type: ADME, Microsome
Rattus norvegicus [17] = organism: Rattus norvegicus; test: Inhibition of rat P-gp ATPase in jejuna mucosa membrane at 10 to 40 uM using ATP as substrate preincubated for 5 mins followed by substrate addition and measured after 30 mins relative to control; type: cell membranes
[18] = Solubility of compound in water incubated for 5 hrs by LC-MS/MS analysis; type: physicochemical
[19] = Metabolic stability in rat liver microsomes assessed as remaining compound at 10 uM measured at 15 mins by LC-MS/MS analysis relative to control; type: ADME, Microsome; conditions: read-out: Stability
[20] = n-Octanol-PBS buffer distribution coefficient, log D of compound incubated for 4 hrs by LC-MS/MS analysis; type: physicochemical
Rattus norvegicus [21] = organism: Rattus norvegicus; test: Inhibition of rat P-gp ATPase in jejuna mucosa membrane assessed as remaining enzyme activity at 10 to 40 uM using ATP as substrate preincubated for 5 mins followed by substrate addition and measured after 30 mins; type: cell membranes
[22] = Metabolic stability in human liver microsomes assessed as remaining compound at 10 uM measured at 45 mins by LC-MS/MS analysis relative to control; type: ADME, Microsome; conditions: read-out: Stability
[23] = Ratio of drug level in blood to plasma (unknown origin) at 500 nM incubated for 30 mins by LC-MS/MS analysis; type: ADME, cell-free; conditions: blood and plasma
[24] = Intrinsic clearance in rat liver at 10 uM by LC-MS/MS analysis; type: ADME, tissue-based; conditions: read-out: CLH
[25] = n-Octanol-water partition coefficient, log P of compound incubated for 4 hrs by LC-MS/MS analysis; type: physicochemical
[26] = Protein binding in plasma (unknown origin) incubated for 4 hrs by red equilibrium dialysis based LC-MS/MS analysis; type: ADME, cell-free; conditions: read-out: PPB
[27] = Metabolic stability in human liver microsomes assessed as half life at 10 uM by LC-MS/MS analysis; type: ADME, Microsome

Activity (Rattus norvegicus [1]): 2.8 µM/min/µL
Compound: O[C@@H](COc1cccc2ncccc12)CN1CCN([C@@H]2c3ccccc3[C@@H]3[C@H](c4ccccc42)C3(F)F)CC1

blood plasma ratio at 1 h, 0.5 µM [2]: 1.4
CLint scaled at 10 µM [3]: 32.3 mL/min/kg
log Pe [4]: Dose-dependent effect
remaining at 0.5 h, 10 µM [5]: 76%
blood plasma ratio at 0 min, 0.5 µM [6]: 0.9
Stability [7]: 73%
hepatic extraction ratio at 10 µM [8]: 0.41
blood plasma ratio at 0.25 h, 0.5 µM [9]: 1.11
hepatic extraction ratio at 10 µM [10]: 0.6
remaining at 0.75 h, 10 µM [11]: 76%
CLint [12]: 20.6 µL/min/mg
remaining at 0.5 h, 10 µM [13]: 73%
CLint [14]: 19 µL/min/mg
blood plasma ratio at 0.75 h, 0.5 µM [15]: 1.35
half-life at 10 µM [16]: 1.18 h
inhibition (Rattus norvegicus [17]): 1 to 12%
solubility at 5 h [18]: 6.8 µg/mL (≈ 16.2 µM)
remaining at 0.25 h, 10 µM [19]: 76%
logD at 4 h [20]: 0.08
Activity (Rattus norvegicus [21]): 6.7 µM/min/µL
remaining at 0.75 h, 10 µM [22]: 73%
blood plasma ratio at 0.5 h, 0.5 µM [23]: 1.25
CLint scaled at 10 µM [24]: 34 mL/min/kg
logP at 4 h [25]: 4.06
fraction unbound at 4 h [26]: < 0.1
t1/2 [27]: 1.38 h
Compound: CCOC(=O)C1=C(C)NC(=O)NC1c1cc2c(cc1OC)OC(C)(CC)C=C2Cl (stereo not drawn)
IC50 (A549): 139 nM

blood plasma ratio at 1 h, 0.5 µM [2]: 1
blood plasma ratio at 0 min, 0.5 µM [6]: 1.3
blood plasma ratio at 0.25 h, 0.5 µM [9]: 1.17
blood plasma ratio at 0.75 h, 0.5 µM [15]: 1.15
blood plasma ratio at 0.5 h, 0.5 µM [23]: 1.2
Compound: CC(C)NCC(O)COc1ccc(CC(N)=O)cc1 (stereo not drawn) [ATENOLOL]
